Consider five molecules from patent publication US6043283A, “Tyramine compounds and their neuronal effects” (priority 1997, dated 2000).

For data set [1], the system named is human microglia stimulated with S5. It counts as cell-based.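 Note: drugs applied at 10 µM.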
The next data set relates to AMAA. Put plainly: protection of neurons against AMAA. It counts as cell-based. Particulars: FIG. 32. An excerpt:
(§1) FIG. 32 is a graph showing the specificity of tyramine compounds to NTox. […]

Another data set deals with quinolinic acid (QUIN). Nature of the data set: protection of neurons against quinolinic acid. It counts as cell-based. Particulars: QUIN (100 μM in FIG. 13).
Source text: as §1

Data set [2] relates to Aβ1-42-stimulated microglia. It counts as cell-based, rat. Particulars: for blocking of Aβ1-42 induced microglial neurotoxicity by peptides: 10 μmoles/liter peptide, 1 μmole/liter Aβ1-42. Put shortly:
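E18 rat hippocampal cultures, microglia depleted with saporin–ac-LDL (10 μg/ml, 12 h) on day 14, then given test substances at 10μM with or without exogenous microglia (100,000 cells) for 72 h. Neurons immunostained (NF plus MAP-2) and nuclei counted by fluorescence microscopy; survival expressed as % of parallel untreated controls.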

The next data set has as its system NTox. Put plainly: protection of neurons against isolated NTox applied directly. Type of data set: cell-based. An excerpt:
FIG. 32 is a graph showing the specificity of tyramine compounds to NTox. […].
Initial studies to characterize the neuroprotective effect of tyramine compounds employed microglia-neuron co-culture assays in the presence of Aβ or isolated senile plaques. Inhibition of neuron killing in […]--inhibition of microglial activation by Aβ or plaques; inhibition of NTox production and release by microglia; or inhibition of action of NTox upon neurons. […] Effective doses in the low nmolar range show the tyramine compounds to be very potent agents compared with low μmolar range of other neuroprotective drugs under development for neurological disorders.

The next data set relates to NMDA receptor. Nature of the data set: whole cell current elicited by NMDA in Xenopus oocytes injected with NMDA R1 and R2 subunit cRNAs. Type of data set: cell-based. Particulars: FIG. 34. An excerpt: FIG. 34 is a graph shorting the % maximal current peak elicited by NMDA, octopamine and tyramine compounds in the presence of a given NMDA concentration. […].
The precise mechanism of NTox that leads to the destruction of neurons is only partially characterized. Based upon extensive testing with receptor antagonists, it has been discovered that two classes of neurotransmitter receptors are involved--the n-methyl D-aspartate (NMDA) class of […] receptors and the Muscarinic (M receptors) class of cholinergic receptors. […] […]. Further study to determine if tyramine compounds act upon the NMDA receptor itself involved expression of the NMDA receptor complex in Xenopus oocytes and measurement of ionic fluxes across the oocyte membrane that are elicited by NMDA. […] […]. […] Thus, tyramine compounds appear to have several actions, one of which is upon the NMDA receptor.

The subject of data set [3] is human microglia. Put plainly: induction of neuron-killing human microglia. It counts as cell-based. Particulars: 1 μmole/liter synthetic peptides.
Data set [4] is classed as physicochemical. Particulars: chemically defined culture media, 37° C.; Table 2. An excerpt: Solubility of peptides is described for chemicallydefined culture media a […]
The subject of another data set is microglia. Nature of the data set: inhibition of SpheresAβ1-42 binding to microglia. Details: species or system rat. Particulars: 10 μmoles/l, 4 hours, 37° C.
The next data set relates to hippocampal neurons. It counts as cell-based, rat. The following applies: absence of microglia.
In data set [5] the test system is rat microglia. Type of data set: binding. The following applies: 6 hours, 37° C. The procedure:
Synthetic Aβ peptides were linked to Sepharose beads (Pharmacia) in coupling buffer (0.1 M NaHCO3, 0.5 M NaCl, pH 8.3) containing 20% DMSO. This solution was combined with an appropriate volume of CNBr-activated Sepharose 4B (10 mg protein per ml of bead; Pharmacia protocol) and mixed overnight on a platform mixer at room temperature. Remaining active groups on the beads were blocked by 1.0 M glycine and excess uncoupled peptides removed from this bead-peptide complex by washing with three cycles of alternating pH (0.1 M acetate buffer, pH 4.0, followed by 0.1 M Tris-HCL buffer, pH 8.0, each buffer containing 0.5 M NaCl). Coupled beads (10^4 per ml) were placed in 35 mm culture dishes covered with 250,000 adhering microglia at 37° C. in 1.5 ml N2 medium in accordance with the procedure of Giulian et al., 1995a. The numbers of microglia which detached from the plate and bound to coupled beads were determined at the end of a 6 hour incubation period by inverted phase microscopy with 100 beads scored from each of three sister cultures. Glycine and bovine serum albumin (BSA) coupled beads were used as controls.

The subject of data set [6] is rat microglia / hippocampal neurons. Particulars: for induction of neurotoxic microglia / neuron killing: rat microglia, mostly 1 μmole/l; for neuron loss with conditioned media from microglia: 10% vol/vol conditioned media, microglia with 1 μmole/l peptide; for killing of neurons: rat, hippocampal neurons, 72 h, 1 µM.
Data set [7] concerns human microglia. Nature of the data set: nitrite/nitrate production, human microglia. It counts as cell-based. The procedure: Nitrites and nitrates, stable byproducts of nitric oxide synthetase (NOS) served as markers for nitric oxide (NO) synthesis (Ignarro, 1990). […]; for 24 to 72 hours incubated in the presence of neuritic/core plaques or Aβ peptides) were measured by the Griess method set forth by Beckman et al., 1990 against a standard curve ranging from 0.1 to 50.0 μM nitrate.

Data set [8] deals with NTox released by Aβ1-42-stimulated microglia (neuron killing). Put plainly: cells. The following applies: 72 hours; FIG. 30 experiment. It counts as cell-based, rat.
The subject of data set [9] is reactive microglia in rat neocortex. Put plainly: brain inflammatory response after infusion into neocortex of adult rat. It counts as in vivo. The following applies: 0.5 nmoles Aβ1-42, co-infusion of 1.0 nmole peptide; 5 days.
For data set [10], the system named is rat microglia. Nature of the data set: binding of Aβ-coupled microspheres to microglia. The following applies: 4 hours at 37° C. (72 h in FIG. 23).
Data set [11] relates to rat microglia. Put plainly: microglial morphology / reactivity. It counts as cell-based. The procedure: Equal amounts of plaque protein (normalized to total amine content at 400 μmoles/l) were added to neuronal cultures in the presence (100,000 cells per culture) or absence of rat microglia. […] The chromatogram was developed with 80% glass distilled formic acid at a flow rate of 0.3 ml per minute and monitored at 280 nm.
Bright field photomicrographs of rat microglia cultures exposed to peak S1 (FIG. 20A) or peak S5 (FIG. 20B) and immuno-stained for the presence of Aβ.
FIGS. 22A-F depict cellular responses upon exposure to synthetic Aβ peptides. […] Bar=25 microns.

For data set [12], the system named is scavenger receptor II mRNA / microglia. Put plainly: microsphere implants in brain neocortex: reactive microglia and scavenger receptor mRNA. Type of data set: in vivo. An excerpt:
FIGS. 7A, B, and C show SpheresAβ1-42 in vivo. […]. […] Microglia were visualized by uptake of fluorescent labeled acetylated LDL, DiI-ac-LDL Bar=40 μm, FIG. 7A; 25 μm FIG. 7B and C.

Entries after “also recorded” stand apart in the source; their conditions may differ. Read-outs that look alike come from different tables or passages of the source.

Regarding `NC(CCCP(=O)(O)O)C(=O)O` (stereo not drawn) [AP5], the “drug blockade of neuron killing, human microglia” value in data set [1] was “prevented neuron death”. Besides, in the data set on AMAA, the “protection against AMAA” value was “prevented from killing neurons”. Further, the “protection against quinolinic acid” value in the data set on quinolinic acid (QUIN) is reported as “prevented from killing neurons”. The “drug blockade of neuron killing, rat microglia” value in data set [2] is recorded as “prevented neuronal loss; also recorded: prevented neuron death”. In addition, the “neuroprotective effects against NTox, concentration range” value with NTox is listed as approximately 100 nM. For the same molecule, the “inhibition of killing action of NTox applied to neurons” value with NTox (isolated NTox, FIGS. 13, 32) is recorded as “NTox can be blocked”. Besides, the “effect on current elicited by NMDA” value in the data set with NMDA receptor is reported as “could be blocked”.

In the case of Aβ1-28: Aβ peptide residues 1-28, the “induction of neurotoxic human microglia” value in the data set with human microglia [3] was “inactive”. Besides, in [4], the Solubility result was “soluble”. In addition, in the data set with microglia, the “inhibition of SpheresAβ1-42 binding by peptides” value is given as “effectively prevented”. Besides, the “direct neurotoxicity without microglia” value with hippocampal neurons is “did not produce neurotoxicity”. In addition, in [2], the “blocking of Aβ1-42 induced microglial neurotoxicity by peptides” value is “blocked neurotoxin production”. Also, in data set [2] (read-out: ED50 (blocking of Aβ1-42 induced neurotoxicity), FIG. 16B), the IC50 was determined as 250 nM. Besides, the “microglial adherence to coupled Sepharose beads” value in the data set with rat microglia [5] is given as “promoted cell binding; also recorded: promoted bead binding”. Besides, the “induction of neurotoxic microglia / neuron killing” value in data set [6] (listed as 1-28) was “inactive”.

As to “Aβ1-42: synthetic human β-amyloid peptide 1-42”, in the data set on human microglia [7], the “release of nitrate or nitrite, human microglia” value is on record as “did not bring about release of nitrate or nitrites”. In addition, the “induction of neurotoxic human microglia” value in the data set with human microglia [3] is recorded as “very potent inducers of neurotoxic human microglia; also recorded: stimulated release of neurotoxin from human microglia”. Further, in [4], the Solubility entry is recorded as “very insoluble”. In addition, the “neurons destroyed by Aβ-stimulated microglia” value in data set [8] is “about 65%”. The “local brain inflammatory response” value in [9] was “produces an inflammatory response”. The “microglial adherence to coupled Sepharose beads” value with rat microglia [5] was “anchored to beads; also recorded: provided an anchoring site for microglia”. Further, the “binding of peptide-coupled microspheres to microglia” value in the data set with rat microglia [10] is listed as “marked glial binding; also recorded: readily bind; also recorded: readily engulfed by microglia”. Besides, in the data set with rat microglia [11], the “microglial morphology / reactivity” value is “morphological changes with retraction of processes”. Moreover, in data set [6], the “neuron killing, microglia separated from neurons (no contact)” value was “stimulated microglia to destroy neurons”; the “neuron loss with conditioned media from microglia” value is reported as “Significant neuron loss occurred”; the killing of neurons was 70-80%. In addition, in [6] (100 nmoles/liter, rat microglia 500 cells per mm^2), the neuron killing entry was “destroyed nearly all neurons”. Also, in data set [6] ("aged" Aβ1-42), the neuron kill is 77.5%±2.6%. In addition, in data set [6] (fresh Aβ1-42), the neuron kill is recorded as 75.1%±5.8%. For the same molecule, the “induction of neurotoxic microglia / neuron killing” value in [6] (listed as 1-42) was “induced toxic effects”.

Regarding “Aβ17-43: Aβ peptide residues 17-43 (LVFFAEDVGSNKGAIIGLMVGGVVIAT; Amyloid-beta protein 42; UniProt P05067 688-714, looked up, fragment)”, the “induction of neurotoxic human microglia” value with human microglia [3] is “inactive”. The “inhibition of SpheresAβ1-42 binding by peptides” value with microglia is “did not”. Also, the “blocking of Aβ1-42 induced microglial neurotoxicity by peptides” value in data set [2] is “did not”. The “microglial morphology / reactivity” value in the data set with rat microglia [11] is given as “does not alter microglial morphology”. The “neuron loss with conditioned media from microglia” value in data set [6] is on record as “undamaged”.

“SpheresAβ1-42: Aβ1-42 coupled to (fluorescent) microspheres”: the “increase in scavenger receptor mRNA vs undamaged tissue or SphereBSA” value in data set [12] (two weeks after implantation) came out at 5 fold. Also, in data set [12] (weeks after implantation), the “reactive microglia around implanted spheres” value is “chronically stimulate the presence of reactive cells”. The “binding of peptide-coupled microspheres to microglia” value in the data set on rat microglia [10] is listed as “rapidly engulfed by cultured microglia”; in the data set with rat microglia [10] (listed as Aβ1-42-spheres), “localized specifically within DiI-ac-LDL(+) microglia”; in the data set on rat microglia [10] (listed as Aβ1-42 coupled-microspheres), “readily taken up by microglia”. Moreover, the “induction of neurotoxic microglia / neuron killing” value in data set [6] was “induced neuron killing”. Also, the killing of neurons in [6] is on record as 70-80%.
